pIC50: −log10 of the molar value.
Columns and labels:
Type in all cases: cell-based, human
[1] = tested on: γ-secretase; assay: Transiently transfected HEK293 cells (SP3-C55-GAL4/VP16 + pGL2-MRG5 luciferase reporter), luciferase activity; details: HEK293 transiently co-transfected with SP3-C55-GAL4/VP16 vector and pGL2-MRG5 luciferase reporter vector; read-out: IC50, inhibition of luciferase activity and Aβ-production
Experimental: (§1) HEK293 cells were co-transfected with the SP3-C55-GAL4/VP16 vector (0.03 μg) and the pGL2-MRG5 luciferase reporter vector (1 μg) in Multi-Well 12 plates.
(§2) Luciferase activity was quantified by the Bright-Glo Luciferase Assay kit (Promega). Aβ in the cell medium was quantified by ELISA, using the antibodies 4G8 and 6E10 (from Senetek), as described in Example 11. These antibodies are specific for amino acids 17-24 (4G8) and 1-17 (6E10) of the Aβ-peptide.

[2] = tested on: γ-secretase; assay: Transiently transfected HEK293 cells, Aβ in the cell medium by ELISA (4G8/6E10); details: HEK293 transiently co-transfected; Aβ in cell medium quantified by ELISA
Source text: For expression in mammalian cells, the signal peptide in SP2-C-GAL4/VP16-100 was replaced, as described in Example 8, with a mammalian signal peptide derived from the basal membrane protein BM40, which is known for high level expression (SP3; SEQ ID NO. 13). Processing of γ-secretase was monitored by quantifying the secretion of Aβ into the culture medium. The secreted Aβ was detected by a sandwich ELISA using monoclonal antibodies 6E10 and biotinylated 4G8 (Senetek PLC, Napa, Calif., USA; cf. Kim et al., 1990) as capture and detection antibodies, respectively.
as §1, §2

[3] = tested on: γ-secretase; assay: Stably transfected HEK293 cell clone (SP3-C55-GAL4/VP16 + MRG5-luciferase), luciferase activity; details: stably double-transfected HEK293 clone, 24 h treatment; read-out: IC50, inhibition of luciferase activity
Experimental: HEK293 cells (Human Embryonic Kidney cell line, (ATCC)) were co-transfected with the plasmid SP3-C55-GAL4/VP16 and the luciferase reporter plasmid PGL2-MRG5(described in Example 2).
Subsequently, stable cell lines were selected by incubation with 400 μg/ml Geneticin (GibcoBRL) to select for Neomycin resistant clones and thereafter characterized for stable expression of SP3-C55-GAL4/VP16 and luciferase.
A clone of HEK293 cells that stably express both the SP3-C55-GAL4/VP16 and the MRG5-luciferase constructs was identified according to Example 14.
For the identification of γ-secretase inhibitors, stably double-transfected HEK293 cells (see Example 14) are incubated, in Multi-Well 96 plates, in the presence of the compound(s) under investigation (e.g., compound library screening) at a concentration 10 μM or less in the assay, and luciferase activity is determined 24 hours later. Luciferase activity can be quantified with the Luciferase Assay System kit (Promega), the Bright-Glo Luciferase Assay kit (Promega), or any other method for luciferase quantification. A decrease in luciferase activity reflects a decrease in γ-secretase activity.

Compound	pIC50 [1]	Aβ-production [2]	pIC50 [3]
C[C@H](NC(=O)Cc1cc(F)cc(F)c1)C(=O)N[C@H](C(=O)OC(C)(C)C)c1ccccc1 [DAPT]	7.85	inhibited dose-dependently	6.64
CC(C)C[C@H](NC(=O)[C@H](Cc1ccccc1)C[C@@H](O)[C@H](Cc1ccccc1)NC(=O)OC(C)(C)C)C(=O)N[C@@H](Cc1ccccc1)C(N)=O [L-685,458]	7.72	inhibited dose-dependently	6.89

Reference: patent publication US7892778B2, “Method of screening for gamma-secretase activity” (Sanofi-Aventis Deutschland GmbH, priority 2003, dated 2011)
